“And” between values parts separate entries of the source, which are not always exact repeats. Identical values can stand only once. Toxic doses and inconclusive results are not listed. How the source made its calls: active means survival T/C of 150% or more; inactive means T/C below 125% in these data.
System: C57BL/6 mice, intracerebral ependymoblastoma, median survival T/C
Experiment: NCI In Vivo Anticancer Drug Screen. Data for tumor model Ependymoblastoma (intracerebral) in C57BL/6 mice
Details: endpoint: median survival time, higher = longer survival
Procedure: The antitumor activity of compounds was measured in mice bearing transplantable tumors. Survival or tumor size were measured and the results are expressed as the measurement made in the treated group (T) divided by the measurement made in the vehicle treated control group (C). The tumor model used in this assay is Ependymoblastoma (intracerebral) in C57BL/6 mice

Measured: T/C

O=C1c2ccccc2C(=O)c2c(NCCNCCO)ccc(NCCNCCO)c21
inactive: dose: 0.5 mg/kg/injection, schedule: Q01DX005 (ip), vehicle: Klucel (hydroxypropylcellulose) (HPC) 104 % of control and 110 % of control | dose: 0.5 mg/kg/injection, schedule: Q01DX005 (ip), vehicle: water 91 % of control and 103 % of control | dose: 1.0 mg/kg/injection, schedule: Q01DX005 (ip), vehicle: Klucel (hydroxypropylcellulose) (HPC) 102 % of control and 107 % of control | dose: 1.0 mg/kg/injection, schedule: Q01DX005 (ip), vehicle: saline with Tween-80 94 % of control | dose: 1.0 mg/kg/injection, schedule: Q01DX005 (ip), vehicle: saline 94 % of control | dose: 1.0 mg/kg/injection, schedule: Q01DX005 (ip), vehicle: water 105 % of control | dose: 1.0 mg/kg/injection, schedule: Q04DX003 (ip), vehicle: Klucel (hydroxypropylcellulose) (HPC) 113 % of control | dose: 1.0 mg/kg/injection, schedule: Q04DX003 (ip), vehicle: water 103 % of control | dose: 2.0 mg/kg/injection, schedule: Q01DX005 (ip), vehicle: Klucel (hydroxypropylcellulose) (HPC) 97 % of control and 108 % of control | dose: 2.0 mg/kg/injection, schedule: Q01DX005 (ip), vehicle: saline with Tween-80 100 % of control | dose: 2.0 mg/kg/injection, schedule: Q01DX005 (ip), vehicle: saline 108 % of control | dose: 2.0 mg/kg/injection, schedule: Q01DX005 (ip), vehicle: water 94 % of control and 102 % of control | dose: 2.0 mg/kg/injection, schedule: Q04DX003 (ip), vehicle: Klucel (hydroxypropylcellulose) (HPC) 103 % of control | dose: 2.0 mg/kg/injection, schedule: Q04DX003 (ip), vehicle: water 110 % of control | dose: 4.0 mg/kg/injection, schedule: Q01DX001 (ip), vehicle: Klucel (hydroxypropylcellulose) (HPC) 87 % of control | dose: 4.0 mg/kg/injection, schedule: Q01DX001 (ip), vehicle: water 107 % of control | dose: 4.0 mg/kg/injection, schedule: Q01DX005 (ip), vehicle: Klucel (hydroxypropylcellulose) (HPC) 98 % of control and 104 % of control | dose: 4.0 mg/kg/injection, schedule: Q01DX005 (ip), vehicle: other 105 % of control | dose: 4.0 mg/kg/injection, schedule: Q01DX005 (ip), vehicle: saline with Tween-80 104 % of control and 109 % of control | dose: 4.0 mg/kg/injection, schedule: Q01DX005 (ip), vehicle: saline 100 % of control | dose: 4.0 mg/kg/injection, schedule: Q01DX005 (ip), vehicle: water 98 % of control and 105 % of control | dose: 4.0 mg/kg/injection, schedule: Q04DX003 (ip), vehicle: Klucel (hydroxypropylcellulose) (HPC) 104 % of control | dose: 4.0 mg/kg/injection, schedule: Q04DX003 (ip), vehicle: water 96 % of control | dose: 8.0 mg/kg/injection, schedule: Q01DX001 (ip), vehicle: Klucel (hydroxypropylcellulose) (HPC) 95 % of control | dose: 8.0 mg/kg/injection, schedule: Q01DX001 (ip), vehicle: water 101 % of control | dose: 8.0 mg/kg/injection, schedule: Q01DX005 (ip), vehicle: Klucel (hydroxypropylcellulose) (HPC) 104 % of control and 107 % of control | dose: 8.0 mg/kg/injection, schedule: Q01DX005 (ip), vehicle: other 110 % of control | dose: 8.0 mg/kg/injection, schedule: Q01DX005 (ip), vehicle: saline with Tween-80 115 % of control | dose: 8.0 mg/kg/injection, schedule: Q01DX005 (ip), vehicle: water 106 % of control and 108 % of control | dose: 8.0 mg/kg/injection, schedule: Q04DX003 (ip), vehicle: Klucel (hydroxypropylcellulose) (HPC) 108 % of control | dose: 8.0 mg/kg/injection, schedule: Q04DX003 (ip), vehicle: water 119 % of control | dose: 16.0 mg/kg/injection, schedule: Q01DX001 (ip), vehicle: Klucel (hydroxypropylcellulose) (HPC) 98 % of control | dose: 16.0 mg/kg/injection, schedule: Q01DX001 (ip), vehicle: water 107 % of control | dose: 16.0 mg/kg/injection, schedule: Q01DX005 (ip), vehicle: Klucel (hydroxypropylcellulose) (HPC) 110 % of control and 112 % of control | dose: 16.0 mg/kg/injection, schedule: Q01DX005 (ip), vehicle: water 105 % of control | dose: 16.0 mg/kg/injection, schedule: Q04DX003 (ip), vehicle: Klucel (hydroxypropylcellulose) (HPC) 109 % of control | dose: 16.0 mg/kg/injection, schedule: Q04DX003 (ip), vehicle: water 114 % of control | dose: 32.0 mg/kg/injection, schedule: Q01DX001 (ip), vehicle: Klucel (hydroxypropylcellulose) (HPC) 112 % of control | dose: 32.0 mg/kg/injection, schedule: Q01DX001 (ip), vehicle: water 112 % of control | dose: 32.0 mg/kg/injection, schedule: Q01DX005 (ip), vehicle: Klucel (hydroxypropylcellulose) (HPC) 93 % of control and 117 % of control | dose: 32.0 mg/kg/injection, schedule: Q04DX003 (ip), vehicle: Klucel (hydroxypropylcellulose) (HPC) 103 % of control | dose: 32.0 mg/kg/injection, schedule: Q04DX003 (ip), vehicle: water 109 % of control | dose: 64.0 mg/kg/injection, schedule: Q01DX001 (ip), vehicle: Klucel (hydroxypropylcellulose) (HPC) 105 % of control | dose: 64.0 mg/kg/injection, schedule: Q01DX001 (ip), vehicle: water 115 % of control | dose: 64.0 mg/kg/injection, schedule: Q04DX003 (ip), vehicle: Klucel (hydroxypropylcellulose) (HPC) 99 % of control | dose: 128.0 mg/kg/injection, schedule: Q01DX001 (ip), vehicle: Klucel (hydroxypropylcellulose) (HPC) 98 % of control | dose: 256.0 mg/kg/injection, schedule: Q01DX001 (ip), vehicle: Klucel (hydroxypropylcellulose) (HPC) 104 % of control

CN(N=O)C(=O)N[C@@H](C=O)[C@@H](O)[C@H](O)[C@H](O)CO
inactive: dose: 14.5 mg/kg/injection, schedule: Q## X006 (ip), vehicle: saline 109 % of control | dose: 16.0 mg/kg/injection, schedule: Q01DX001 (ip), vehicle: saline 98 % of control and 109 % of control | dose: 16.0 mg/kg/injection, schedule: Q01DX005 (ip), vehicle: other 113 % of control | dose: 16.0 mg/kg/injection, schedule: Q01DX005 (ip), vehicle: saline 117 % of control | dose: 16.0 mg/kg/injection, schedule: Q#A X002 (ip), vehicle: saline 100 % of control and 108 % of control | dose: 29.0 mg/kg/injection, schedule: Q## X006 (ip), vehicle: saline 111 % of control | dose: 32.0 mg/kg/injection, schedule: Q01DX001 (ip), vehicle: other 105 % of control | dose: 32.0 mg/kg/injection, schedule: Q01DX001 (oral), vehicle: other 116 % of control | dose: 32.0 mg/kg/injection, schedule: Q01DX005 (ip), vehicle: other 120 % of control | dose: 32.0 mg/kg/injection, schedule: Q01DX005 (ip), vehicle: saline 114 % of control | dose: 32.0 mg/kg/injection, schedule: Q01DX005 (oral), vehicle: other 95 % of control | dose: 32.0 mg/kg/injection, schedule: Q01DX005 (oral), vehicle: saline 102 % of control | dose: 32.0 mg/kg/injection, schedule: Q## X006 (ip), vehicle: other 112 % of control | dose: 32.0 mg/kg/injection, schedule: Q#A X002 (ip), vehicle: saline 104 % of control and 114 % of control | dose: 57.9 mg/kg/injection, schedule: Q## X006 (ip), vehicle: saline 114 % of control | dose: 64.0 mg/kg/injection, schedule: Q01DX001 (oral), vehicle: other 102 % of control | dose: 64.0 mg/kg/injection, schedule: Q01DX005 (ip), vehicle: other 110 % of control | dose: 64.0 mg/kg/injection, schedule: Q01DX005 (oral), vehicle: other 103 % of control | dose: 64.0 mg/kg/injection, schedule: Q01DX005 (oral), vehicle: saline 101 % of control | dose: 64.0 mg/kg/injection, schedule: Q## X006 (ip), vehicle: other 116 % of control | dose: 64.0 mg/kg/injection, schedule: Q#A X002 (ip), vehicle: saline 89 % of control and 118 % of control | dose: 128.0 mg/kg/injection, schedule: Q01DX001 (oral), vehicle: other 101 % of control | dose: 128.0 mg/kg/injection, schedule: Q01DX005 (oral), vehicle: saline 98 % of control | dose: 128.0 mg/kg/injection, schedule: Q## X006 (ip), vehicle: other 121 % of control | dose: 128.0 mg/kg/injection, schedule: Q#A X002 (ip), vehicle: saline 89 % of control and 113 % of control | dose: 231.7 mg/kg/injection, schedule: Q## X006 (ip), vehicle: saline 119 % of control | dose: 256.0 mg/kg/injection, schedule: Q01DX001 (oral), vehicle: other 113 % of control | dose: 256.0 mg/kg/injection, schedule: Q01DX005 (oral), vehicle: other 93 % of control | dose: 256.0 mg/kg/injection, schedule: Q01DX005 (oral), vehicle: saline 103 % of control | dose: 256.0 mg/kg/injection, schedule: Q#A X002 (ip), vehicle: saline 92 % of control | dose: 512.0 mg/kg/injection, schedule: Q01DX001 (oral), vehicle: other 113 % of control | dose: 512.0 mg/kg/injection, schedule: Q01DX005 (oral), vehicle: saline 113 % of control | dose: 1024.0 mg/kg/injection, schedule: Q01DX001 (oral), vehicle: other 117 % of control

— PubChem BioAssay AID222 (DTP/NCI, 2004)
